The text below walks through data of patent publication US20210379009A1, “ANTIBACTERIAL AGENT AGAINST ENTEROBACTERIUM WHICH CONTAINS EQUOL AS ACTIVE INGREDIENT” (priority 2018, published 2021).

What all share (format): cell-based
For assay [1], the system named is Clostridioides difficile (NAP1/027 strain). The assay is described as follows: Growth inhibition on Clostridioides difficile NAP1/027 strain (OD600). To be noted: for inhibition of the growth of Clostridioides difficile versus control: FIG. 2. As for the experimental part: Clostridioides difficile (NAP1/027 strain) was added to a medium containing equol in a concentration of 100 μg/mL, 75 μg/mL, 50 μg/mL, or 25 μg/mL (0 hour), and subsequently cultured to check the influence on the growth for 24 hours after the start of culture. The culture performed was totally under anaerobic conditions at 35° C.
Because equol dissolved in DMSO was used, a medium with addition only of DMSO was additionally subjected to measurement as a control.
The growth of the bacterium was examined by measuring the absorbance of each medium at 600 nm (OD600).
Equol is a final product generated from daidzin through daidzein and dihydrodaidzein. Inhibition of the growth of Clostridioides difficile by equol (100 μg/mL, 50 μg/mL), daidzein (50 μg/mL), and dihydrodaidzein (100 μg/mL, 50 μg/mL) was measured in the same manner as in Example 1.

The test system is the same in assay [2]. The assay is described as follows: Influence on form of Clostridioides difficile (Gram staining). To be noted: 100 μg/mL; after 8-day culture; FIG. 5. The protocol:
The influence of equol on the form of Clostridioides difficile (NAP1/027 strain) was validated through staining of Clostridioides difficile with Gram staining under the action of equol (100 μg/mL) in the same manner as in Example 1.

The subject of assay [3] is Clostridioides perfringens (C. perfringens (Clostridium perfringens)). Particulars: 100 μg/mL; FIG. 4.
In assay [4] the test system is Bacteroides fragilis (B. fragilis). Put plainly: Growth inhibition on other bacterial species: Bacteroides fragilis. To be noted: 100 μg/mL.
In another assay the test system is Clostridioides difficile. Put plainly: Inhibition of sporulation of Clostridioides difficile (spore count). To be noted: 100 μg/mL; added to medium grown to a saturated state; from day 2; FIG. 6. As for the experimental part: To validate the influence of equol (100 μg/mL) on the sporulation of Clostridioides difficile, equol was added to a medium in which Clostridioides difficile had grown to a saturated state, and the number of spores formed was counted.

The subject of assay [5] is Escherichia coli (E. coli). The assay is described as follows: Growth inhibition on other bacterial species: Escherichia coli. To be noted: 100 μg/mL; FIG. 4.

Turning to `O=c1c(-c2ccc(O)cc2)coc2cc(O)ccc12` [daidzein, reference compound], in assay [1] (50 μg/mL), the “inhibition of the growth of Clostridioides difficile versus control” value is “no clear difference from the control”.
On to `Oc1ccc([C@H]2COc3cc(O)ccc3C2)cc1` (stereo in doubt) [equol, 4′,7-isoflavandiol], for which the “form of cells (Gram staining) versus control” value in assay [2] is “forms longer and thinner than those of cells in the control”. For the same molecule, in assay [3], the “influence on growth of Clostridioides perfringens” value was “An influence was observed”. Further, in assay [4] (52 hours of the test, FIG. 4), the “proliferation of Bacteroides fragilis” value was “completely no proliferation”. The “viability of Bacteroides fragilis after transfer into a medium without equol” value in assay [4] (transferred at the end of 52 hours of the test) is listed as “only the growth was inhibited, without killing the bacterium”. Moreover, the results for the “inhibition of the growth of Clostridioides difficile versus control” value in assay [1] (50 μg/mL) and in assay [1] (100 μg/mL) were “inhibited the growth of Clostridioides difficile to the same degree” and “an even higher degree of inhibition than them”, respectively. Besides, the “concentration dependence of growth inhibition” value in assay [1] (equol 25 to 100 μg/mL, FIG. 1) was “the inhibition depended on the concentration of equol”. In addition, the “growth of Clostridioides difficile (OD600) versus control” value in assay [1] (equol 100, 75, 50 or 25 μg/mL, 24 hours, anaerobic, 35° C., DMSO control, FIG. 1) is “slower than that in the control”. Besides, the “number of spores formed versus control” value in the assay on Clostridioides difficile is listed as “few spores”. The “influence on growth of Escherichia coli” value in assay [5] is reported as “no influence was found”.
On to `O=C1c2ccc(O)cc2OCC1c1ccc(O)cc1` (stereo not shown) [dihydrodaidzein, reference compound], for which the “inhibition of the growth of Clostridioides difficile versus control” value was “no clear difference from the control” in assay [1] (50 μg/mL) and “inhibited the growth of Clostridioides difficile to the same degree” in assay [1] (100 μg/mL).
